Test results: patent US20230257372A1 (CHONG KUN DANG PHARMACEUTICAL CORP., priority 2020, published 2023)
Where two headings read alike, the source gives them in different places.

How the values were obtained:
human recombinant HDAC1 = biological target: T1, human recombinant HDAC1 (Homo sapiens, UniProt Q13547); assay: HDAC1 enzyme activity inhibition (HDAC Fluorimetric Drug Discovery Kit); assay type: biochemical; conditions: read-out: HDAC1
T1 construct: purchased Enzo Life Science, Inc. BML-SE456
Method in brief: (§1)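 Each isoform is run in the same format: compound dilutions (5-fold steps), 10 μM substrate, […] enzyme, one hour at 30° C, then 30 minutes with developer before fluorescence readout.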

human recombinant HDAC6 = biological target: T2, human recombinant HDAC6 (Homo sapiens, UniProt Q9UBN7); assay: HDAC6 enzyme activity inhibition (HDAC Fluorimetric Drug Discovery Kit); assay type: biochemical
T2 construct: purchased Calbiochem Inc. 382180
T2 sequence (Q9UBN7 1-1215): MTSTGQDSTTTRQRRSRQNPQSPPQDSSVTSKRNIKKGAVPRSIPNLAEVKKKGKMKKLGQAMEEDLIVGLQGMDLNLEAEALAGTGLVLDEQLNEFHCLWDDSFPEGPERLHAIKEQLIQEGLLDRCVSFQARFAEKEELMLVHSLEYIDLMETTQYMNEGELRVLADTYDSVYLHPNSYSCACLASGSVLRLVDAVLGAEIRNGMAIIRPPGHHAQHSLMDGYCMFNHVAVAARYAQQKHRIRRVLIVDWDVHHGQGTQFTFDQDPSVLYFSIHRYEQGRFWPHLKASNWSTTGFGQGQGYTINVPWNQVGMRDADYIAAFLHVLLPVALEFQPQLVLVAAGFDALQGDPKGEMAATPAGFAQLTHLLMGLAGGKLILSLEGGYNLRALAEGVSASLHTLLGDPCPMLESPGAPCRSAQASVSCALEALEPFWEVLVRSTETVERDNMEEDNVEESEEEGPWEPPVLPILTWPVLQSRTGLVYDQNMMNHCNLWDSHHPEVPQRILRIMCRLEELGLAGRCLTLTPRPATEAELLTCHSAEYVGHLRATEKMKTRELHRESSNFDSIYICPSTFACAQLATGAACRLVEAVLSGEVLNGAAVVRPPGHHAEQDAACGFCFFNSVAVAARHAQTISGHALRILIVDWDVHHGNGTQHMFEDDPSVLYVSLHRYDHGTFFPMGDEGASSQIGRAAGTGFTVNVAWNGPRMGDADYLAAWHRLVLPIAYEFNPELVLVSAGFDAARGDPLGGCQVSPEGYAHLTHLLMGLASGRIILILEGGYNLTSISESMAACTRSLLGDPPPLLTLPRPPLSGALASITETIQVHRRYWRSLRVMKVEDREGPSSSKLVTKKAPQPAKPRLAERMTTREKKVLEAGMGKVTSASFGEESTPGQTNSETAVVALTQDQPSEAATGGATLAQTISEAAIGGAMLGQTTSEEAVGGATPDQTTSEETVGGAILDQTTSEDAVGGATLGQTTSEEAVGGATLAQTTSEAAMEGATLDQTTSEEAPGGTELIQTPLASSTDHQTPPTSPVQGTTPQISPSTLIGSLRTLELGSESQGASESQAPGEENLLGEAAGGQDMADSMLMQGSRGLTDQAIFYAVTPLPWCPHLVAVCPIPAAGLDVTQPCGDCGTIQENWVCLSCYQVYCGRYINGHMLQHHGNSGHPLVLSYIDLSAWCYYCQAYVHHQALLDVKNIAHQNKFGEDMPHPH
Method in brief: as §1

[1] = human recombinant HDAC1, IC50 calculated with GraphPad Prism
[2] = human recombinant HDAC6, IC50 calculated with GraphPad Prism
[3] = human recombinant HDAC1, Fluor de Lys substrate, 30° C. 60 minutes
[4] = human recombinant HDAC6, same protocol as HDAC1

T1 sequence (Q13547 whole entry): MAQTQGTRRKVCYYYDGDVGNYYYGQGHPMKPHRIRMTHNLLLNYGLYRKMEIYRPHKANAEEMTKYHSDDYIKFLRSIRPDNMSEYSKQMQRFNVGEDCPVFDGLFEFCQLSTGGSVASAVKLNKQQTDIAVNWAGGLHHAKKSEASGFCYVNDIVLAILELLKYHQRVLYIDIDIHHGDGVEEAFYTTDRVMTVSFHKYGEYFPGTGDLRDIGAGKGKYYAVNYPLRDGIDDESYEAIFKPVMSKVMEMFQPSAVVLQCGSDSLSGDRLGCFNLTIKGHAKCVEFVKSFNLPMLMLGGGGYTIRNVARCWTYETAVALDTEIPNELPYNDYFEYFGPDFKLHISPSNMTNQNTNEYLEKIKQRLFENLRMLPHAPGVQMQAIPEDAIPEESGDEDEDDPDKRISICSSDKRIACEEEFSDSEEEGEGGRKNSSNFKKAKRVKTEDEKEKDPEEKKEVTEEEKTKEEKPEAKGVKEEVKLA

SMILES | IC50 (human recombinant HDAC1; [1]) [nM] | HDAC6 selectivity (fold) (human recombinant HDAC6; HDAC1 IC50 / HDAC6 IC50) | IC50 (human recombinant HDAC6; [2]) [nM] | IC50 (human recombinant HDAC1; [3]) [nM] | HDAC6 selectivity (fold) (human recombinant HDAC6; HDAC6 over HDAC1) | IC50 (human recombinant HDAC6; [4]) [nM]
CC(C)(C)C(=O)Nc1cccc(-c2cn(Cc3ccc(-c4nnc(C(F)F)o4)cc3)nn2)c1 [Compound 4327, N-(3-(1-(4-(5-(difluoromethyl)-1,3,4-oxadiazol-2-yl)benzyl)-1H-1,2,3-triazol-4-yl)phenyl)pivalamide] | > 50000 | 1396 | 35.8 |  |  | 
CCN1CCC(c2cccc(-c3cn(Cc4ccc(-c5nnc(C(F)F)o5)cc4F)nn3)c2)CC1 [Compound 4291, 2-(difluoromethyl)-5-(4-((4-(3-(1-ethylpiperidin-4-yl)phenyl)-1H-1,2,3-triazol-1-yl)methyl)-3-fluorophenyl)-1,3,4-oxadiazole] | > 50000 | 1170 | 42.7 |  |  | 
O=C(c1cccc(-c2cn(Cc3ccc(-c4nnc(C(F)F)o4)cn3)nn2)c1)N1CCOCC1 [Compound 3885, (3-(1-((5-(5-(difluoromethyl)-1,3,4-oxadiazol-2-yl)pyridin-2-yl)methyl)-1H-1,2,3-triazol-4-yl)phenyl)(morpholino)methanone] | > 50000 | 920 | 54.3 |  |  | 
CN(C)CCN(C)C(=O)c1cccc(-c2cn(Cc3ccc(-c4nnc(C(F)F)o4)cn3)nn2)c1 [Compound 4449, 3-(1-((5-(5-(difluoromethyl)-1,3,4-oxadiazol-2-yl)pyridin-2-yl)methyl)-1H-1,2,3-triazol-4-yl)-N-(2-(dimethylamino)ethyl)-N-methylbenzamide] | > 50000 | 3759 | 13.3 |  |  | 
Fc1cc(-c2nnc(C(F)F)o2)ccc1Cn1cc(-c2ccc(CN3CC[C@@H](F)C3)cn2)nn1 [Compound 18260, (R)-2-(difluoromethyl)-5-(3-fluoro-4-((4-(5-((3-fluoropyrrolidin-1-yl)methyl)pyridin-2-yl)-1H-1,2,3-triazol-1-yl)methyl)phenyl)-1,3,4-oxadiazole] |  |  |  | > 50000 | 775 | 64.5
FC(F)c1nnc(-c2ccc(Cn3cc(-c4cccc(CN5CCC5)c4)nn3)nc2)o1 [Compound 3963, 2-(6-((4-(3-(azetidin-1-ylmethyl)phenyl)-1H-1,2,3-triazol-1-yl)methyl)pyridin-3-yl)-5-(difluoromethyl)-1,3,4-oxadiazole] | > 50000 | 841 | 59.4 |  |  | 
CN1CCN(c2cccc(-c3cn(Cc4ccc(-c5nnc(C(F)F)o5)cn4)nn3)c2F)CC1 [Compound 4569, 2-(difluoromethyl)-5-(6-((4-(2-fluoro-3-(4-methylpiperazin-1-yl)phenyl)-1H-1,2,3-triazol-1-yl)methyl)pyridin-3-yl)-1,3,4-oxadiazole] |  |  |  | > 50000 | 3649 | 13.7
FC(F)c1nnc(-c2ccc(Cn3cnc(Br)c3)nc2)o1 [Compound 3949, 2-(6-((4-bromo-1H-imidazol-1-yl)methyl)pyridin-3-yl)-5-(difluoromethyl)-1,3,4-oxadiazole] | > 50000 | 445 | 112 |  |  | 
FC(F)c1nnc(-c2ccc(Cn3cc(C4CCN(C5COC5)CC4)nn3)nc2)o1 [Compound 3809, 2-(difluoromethyl)-5-(6-((4-(1-(oxetan-3-yl)piperidin-4-yl)-1H-1,2,3-triazol-1-yl)methyl)pyridin-3-yl)-1,3,4-oxadiazole] | > 50000 | 253 | 198 |  |  | 
CCC(=O)N1CC(c2cn(Cc3ccc(-c4nnc(C(F)F)o4)cn3)nn2)C1 [Compound 3957, 1-(3-(1-((5-(5-(difluoromethyl)-1,3,4-oxadiazol-2-yl)pyridin-2-yl)methyl)-1H-1,2,3-triazol-4-yl)azetidin-1-yl)propan-1-one] | > 50000 | 100 | 496 |  |  | 
CN1C[C@@H]2C[C@H]1CN2c1cccc(-c2cn(Cc3ccc(-c4nnc(C(F)F)o4)cc3)nn2)c1 [Compound 4320, 2-(difluoromethyl)-5-(4-((4-(3-((1S,4S)-5-methyl-2,5-diazabicyclo[2.2.1]heptan-2-yl)phenyl)-1H-1,2,3-triazol-1-yl)methyl)phenyl)-1,3,4-oxadiazole] | > 50000 | 719 | 69.5 |  |  | 
OC1(c2cn(Cc3ccc(-c4nnc(C(F)F)o4)cn3)nn2)COC1 [Compound 4276, 3-(1-((5-(5-(difluoromethyl)-1,3,4-oxadiazol-2-yl)pyridin-2-yl)methyl)-1H-1,2,3-triazol-4-yl)oxetan-3-ol] | > 50000 | 143 | 349 |  |  | 
FC(F)c1nnc(-c2ccc(Cn3cc(C4CCCN(C5COC5)C4)nn3)nc2)o1 (stereo not drawn) [Compound 4003] | > 50000 | 103 | 484 |  |  | 
Fc1cc(-c2nnc(C(F)F)o2)ccc1Cn1cc(-c2cccc(N3CCOCC3)c2)nn1 [Compound 4339, 4-(3-(1-(4-(5-(difluoromethyl)-1,3,4-oxadiazol-2-yl)-2-fluorobenzyl)-1H-1,2,3-triazol-4-yl)phenyl)morpholine] | > 50000 | 1623 | 30.8 |  |  | 
CN(C)Cc1ccc(-c2cn(Cc3ncc(-c4nnc(C(F)F)o4)cc3F)nn2)cc1F [Compound 18949, 1-(4-(1-((5-(5-(difluoromethyl)-1,3,4-oxadiazol-2-yl)-3-fluoropyridin-2-yl)methyl)-1H-1,2,3-triazol-4-yl)-2-fluorophenyl)-N,N-dimethylmethanamine] |  |  |  | > 50000 | 759 | 65.8
Fc1cc(-c2nnc(C(F)F)o2)ccc1Cn1cc(-c2ccc(CN3CC4(COC4)C3)cc2)nn1 [Compound 4523, 6-(4-(1-(4-(5-(difluoromethyl)-1,3,4-oxadiazol-2-yl)-2-fluorobenzyl)-1H-1,2,3-triazol-4-yl)benzyl)-2-oxa-6-azaspiro[3.3]heptane] |  |  |  | > 50000 | 4504 | 11.1
Fc1cc(-c2nnc(C(F)F)o2)ccc1Cn1cc(-c2ccc(F)c(N3CCNCC3)c2)nn1 [Compound 4397, 2-(difluoromethyl)-5-(3-fluoro-4-((4-(4-fluoro-3-(piperazin-1-yl)phenyl)-1H-1,2,3-triazol-1-yl)methyl)phenyl)-1,3,4-oxadiazole] | > 50000 | 766 | 65.2 |  |  | 
Fc1cc(-c2nnc(C(F)F)o2)ccc1Cn1cc(-c2ccnc(N3CCN(C4COC4)CC3)c2)nn1 [Compound 4636] |  |  |  | > 50000 | 1567 | 31.9
CCN1CCN(c2cccc(-c3cn(Cc4ccc(-c5nnc(C(F)F)o5)cn4)nn3)c2)CC1 [Compound 3988, 2-(difluoromethyl)-5-(6-((4-(3-(4-ethylpiperazin-1-yl)phenyl)-1H-1,2,3-triazol-1-yl)methyl)pyridin-3-yl)-1,3,4-oxadiazole] | > 50000 | 4716 | 10.6 |  |  | 
FC(F)c1nnc(-c2ccc(Cn3cc(C4(F)CCN(C5COC5)CC4)nn3)nc2)o1 [Compound 4008, 2-(difluoromethyl)-5-(6-((4-(4-fluoro-1-(oxetan-3-yl)piperidin-4-yl)-1H-1,2,3-triazol-1-yl)methyl)pyridin-3-yl)-1,3,4-oxadiazole] | > 50000 | 408 | 122 |  |  | 
